Assay [1] concerns the target WD repeat-containing protein 5 (Homo sapiens, UniProt P61964). Briefly: Competitive binding affinity to N-terminal 6xHis-SUMO-tagged human WDR5 (22 to 334 residues) expressed in Escherichia coli BL21-Gold (DE3) cells assessed as inhibition constant using 10-mer-Thr-FAM peptide as substrate incubated for 1 hr by Lantha Screen based TR-FRET assay. In general terms: In TR-FRET formats the signal depends on donor and acceptor labels being close together.

Another assay concerns K562. Briefly: Anti-proliferative activity against human K562 cells assessed as inhibition of cell proliferation incubated for 5 days by Cell Titre Glo luminescent assay. The conditions noted are these: Homo sapiens, K562, 120 h, time 5 day. The class given is functional.
In a further assay the test system is MV4-11. Briefly: Anti-proliferative activity against human MV4-11 cells assessed as inhibition of cell proliferation incubated for 5 days by Cell Titre Glo luminescent assay. The following applies: Homo sapiens, MV4-11, 120 h, time 5 day. It is filed as functional.
In a further assay the test system is MOLM-13. Briefly: Anti-proliferative activity against human MOLM-13 cells assessed as inhibition of cell proliferation incubated for 5 days by Cell Titre Glo luminescent assay. It is filed as functional. The conditions noted are these: Homo sapiens, MOLM-13, 120 h, time 5 day.

SMILES strings stand for the structures.

Drawing on ChEMBL document CHEMBL5154875, “Discovery of Potent Orally Bioavailable WD Repeat Domain 5 (WDR5) Inhibitors Using a Pharmacophore-Based Optimization” (J Med Chem, 2022), this text covers Ki and GI50 for 30 compounds.

By Ki is commonly meant a measure of affinity in units of concentration, obtained from inhibition or displacement. As usually defined, the GI50 is the concentration that inhibits growth by half. Take `COc1cc(CN2CCc3c(cc(Cn4ccn(C)c4=N)cc3-c3cc(C)cnc3C)C2=O)cc(OC)c1`: in assay [1], the Ki stood at 0.022 nM. Also, the GI50 is more than 30000 nM with K562, 640 nM with MV4-11 and 2400 nM in the assay with MOLM-13.
The corresponding values for `COc1cc(CN2CCc3c(cc(Cn4ccnc4C4CC4)cc3-c3cn(C)nc3C(F)(F)F)C2=O)cc(OC)c1` are 0.028 nM, 8500 nM, 240 nM and 710 nM.
For `COc1cc(CN2CCc3c(cc(Cn4ccn(C)c4=N)cc3-c3ccc(F)cc3OC)C2=O)cc(OC)c1`, in that order: 0.033 nM, 18000 nM, 210 nM and 420 nM.
In the case of `Cc1cccnc1CN1CCc2c(cc(Cn3ccnc3C)cc2-c2cn(C)nc2C(F)(F)F)C1=O`, the Ki in assay [1] worked out at 0.59 nM. Also, the concentration for 50% growth inhibition (GI50) stood at 22000 nM in the assay on K562, 3000 nM in the assay on MV4-11 and 4700 nM in the assay on MOLM-13.
The corresponding values for `COc1cc(CN2CCc3c(cc(Cn4ccn(C)c4=N)cc3-c3ccc(F)cc3O)C2=O)cc(OC)c1` are 0.035 nM, more than 30000 nM, 88 nM and 220 nM.
The corresponding values for `COc1cc(CN2CCc3c(cc(Cn4ccnc4C(F)F)cc3-c3cn(C)nc3C(F)(F)F)C2=O)cc(OC)c1` are more than 6.7 nM, more than 30000 nM, 12000 nM and 20000 nM.
For `CCc1ccnc(CN2CCc3c(cc(Cn4ccnc4C)cc3-c3cn(C)nc3C(F)(F)F)C2=O)c1`, in assay [1], the Ki is less than 0.02 nM. Besides, the concentration for 50% growth inhibition (GI50) was found to be 4100 nM in the assay with K562, 16 nM in the assay on MV4-11 and 25 nM in the assay with MOLM-13.
The corresponding values for `COc1cc(CN2CCc3c(cc(Cn4ccn(C)c4=N)cc3-c3cn(C)nc3C)C2=O)cc(OC)c1` are 0.023 nM, more than 30000 nM, 210 nM and 570 nM.
The corresponding values for `COc1cc(CN2CCc3c(cc(Cn4ccn(C)c4=N)cc3-c3cccnc3OC)C2=O)cc(OC)c1` are 0.055 nM, more than 30000 nM, 560 nM and 1600 nM.
The corresponding values for `COc1cc(CN2CCc3c(cc(Cn4ccn(C)c4=N)cc3-c3ccncc3C)C2=O)cc(OC)c1` are 0.029 nM, more than 30000 nM, 230 nM and 640 nM.
Regarding `CCn1cc(-c2cc(Cn3ccnc3C)cc3c2CCN(Cc2cc(OC)ccn2)C3=O)c(C(F)(F)F)n1`, the Ki in assay [1] was less than 0.02 nM. Also, the GI50 came out at 13000 nM with K562, 34 nM in the assay on MV4-11 and 59 nM with MOLM-13.
The corresponding values for `COc1cc(CN2CCc3c(cc(Cn4cccn4)cc3-c3cn(C)nc3C(F)(F)F)C2=O)cc(OC)c1` are more than 6.7 nM, more than 30000 nM, 22000 nM and 20000 nM.
For `COc1cc(CN2CCc3c(cc(Cn4ccn(C)c4=N)cc3-c3cc(C)nn3C)C2=O)cc(OC)c1`, in that order: 0.025 nM, more than 30000 nM, 85 nM and 270 nM.
For `Cc1cc(CN2CCc3c(cc(Cn4ccnc4C)cc3-c3cn(C)nc3C(F)(F)F)C2=O)ccn1`, in that order: 0.064 nM, 13000 nM, 270 nM and 550 nM.
Take `COc1cc(CN2CCc3c(cc(Cn4cnnc4)cc3-c3cn(C)nc3C(F)(F)F)C2=O)cc(OC)c1`: the Ki in assay [1] was 6.5 nM. Moreover, the values for the GI50 in the assay on K562, in the assay on MV4-11 and in the assay with MOLM-13 were more than 30000 nM, 16000 nM and more than 30000 nM, respectively.
Take `Cc1ccnc(CN2CCc3c(cc(Cn4ccnc4C)cc3-c3cn(C)nc3C(F)(F)F)C2=O)c1`: the Ki in assay [1] was 0.02 nM. Moreover, the GI50 was 3600 nM in the assay on K562, 23 nM in the assay on MV4-11 and 33 nM in the assay on MOLM-13.
Turning to `CCn1cc(-c2cc(Cn3ccn(C)c3=N)cc3c2CCN(Cc2cc(OC)cc(OC)c2)C3=O)c(C(F)(F)F)n1`, in assay [1], the inhibition constant (Ki) is less than 0.02 nM. The GI50 with K562 was more than 30000 nM; with MV4-11 it was 36 nM; in the assay with MOLM-13, 110 nM.
For `CCc1ccnc(CN2CCc3c(cc(Cn4ccnc4C)cc3-c3cn(CC)nc3C(F)(F)F)C2=O)c1`, the inhibitory constant (Ki) in assay [1] was less than 0.02 nM. In addition, the GI50 came out at 5600 nM in the assay on K562, 24 nM with MV4-11 and 43 nM in the assay with MOLM-13.
For `CCc1nccn1Cc1cc2c(c(-c3cn(C)nc3C(F)(F)F)c1)CCN(Cc1cc(OC)cc(OC)c1)C2=O`, the figures for the GI50 with K562, in the assay on MV4-11 and with MOLM-13 were 7500 nM, 94 nM and 240 nM, respectively.
On to `Cc1cccc(CN2CCc3c(cc(Cn4ccnc4C)cc3-c3cn(C)nc3C(F)(F)F)C2=O)n1`, for which the inhibitory constant (Ki) in assay [1] is 0.039 nM. For the same compound, the GI50 was 13000 nM with K562, 170 nM in the assay on MV4-11 and 330 nM with MOLM-13.
In the case of `COc1cc(CN2CCc3c(cc(Cn4ccnc4)cc3-c3cn(C)nc3C(F)(F)F)C2=O)cc(OC)c1`, in assay [1], the Ki is less than 0.02 nM. The concentration for 50% growth inhibition (GI50) with K562 was 9100 nM; in the assay on MV4-11, 59 nM; in the assay on MOLM-13 it was 180 nM.
For `COc1cc(CN2CCc3c(cc(Cn4ccn(C)c4=N)cc3-c3cc(C)ncc3C)C2=O)cc(OC)c1`, in that order: less than 0.02 nM, more than 30000 nM, 200 nM and 560 nM.
With `COc1cc(CN2CCc3c(cc(Cn4ccn(C)c4=N)cc3-c3c(C)nn(C)c3C)C2=O)cc(OC)c1`, the Ki in assay [1] was determined as 0.21 nM. Besides, the concentration for 50% growth inhibition (GI50) in the assay with K562 is more than 30000 nM; in the assay on MV4-11, 19000 nM; in the assay on MOLM-13, more than 30000 nM.
For the compound `COc1cc(CN2CCc3c(cc(Cn4ccn(C)c4=N)cc3-c3cn(C)nc3C(F)(F)F)C2=O)cc(OC)c1`, in assay [1], the Ki is less than 0.02 nM. Further, the concentration for 50% growth inhibition (GI50) is more than 30000 nM in the assay on K562, 39 nM in the assay on MV4-11 and 110 nM with MOLM-13.
For `COc1cc(CN2CCc3c(cc(Cn4cccc4)cc3-c3cn(C)nc3C(F)(F)F)C2=O)cc(OC)c1`, in that order: more than 6.7 nM, more than 30000 nM, 15000 nM and 15000 nM.
Take `COc1cc(CN2CCc3c(cc(Cn4ccnc4C(C)C)cc3-c3cn(C)nc3C(F)(F)F)C2=O)cc(OC)c1`: the Ki in assay [1] came to 3.4 nM. Further, the results for the concentration for 50% growth inhibition (GI50) with K562, with MV4-11 and in the assay with MOLM-13 were 6000 nM, 4700 nM and 7700 nM, respectively.
For `COc1cc(CN2CCc3c(cc(Cn4ccnc4C)cc3-c3cn(C)nc3C(F)(F)F)C2=O)cc(OC)c1`, in that order: less than 0.02 nM, 3700 nM, 32 nM and 110 nM.
For `COc1cc(CN2CCc3c(cc(Cn4ccn(C)c4=N)cc3-c3cccnc3C)C2=O)cc(OC)c1`, in that order: 0.036 nM, more than 30000 nM, 1200 nM and 3900 nM.
For `COc1cc(CN2CCc3c(cc(Cn4ccn(C)c4=N)cc3-c3conc3C)C2=O)cc(OC)c1`, in that order: 0.046 nM, more than 30000 nM, 850 nM and 2100 nM.
For the compound `Cc1nccn1Cc1cc2c(c(-c3cn(C)nc3C(F)(F)F)c1)CCN(Cc1ccccn1)C2=O`, the Ki in assay [1] was 0.23 nM. The GI50 with K562 was more than 30000 nM; with MV4-11, 1500 nM; with MOLM-13 it was 3100 nM.
